# pIC50: −log10 of the molar value.
# How the values were obtained:
# [1] = tested on: Haemophilus influenzae; assay: Antibacterial activity against Haemophilus influenzae after 20 hrs by NCCLS-based two-fold broth dilution method; format: functional
# [2] = tested on: Enterococcus faecalis; assay: Antibacterial activity against t Enterococcus faecalis after 20 hrs by NCCLS-based two-fold broth dilution method; format: functional; conditions: read-out: MIC
# [3] = tested on: Enterococcus faecalis; assay: Antibacterial activity against t Enterococcus faecalis VRE after 20 hrs by NCCLS-based two-fold broth dilution method; format: functional; conditions: read-out: MIC
# [4] = tested on: Staphylococcus aureus; assay: Antibacterial activity against methicillin resistant Staphylococcus aureus after 20 hrs by NCCLS-based two-fold broth dilution method; format: functional; conditions: read-out: MIC
# [5] = tested on: Staphylococcus aureus; assay: Antibacterial activity against methicillin susceptible Staphylococcus aureus after 20 hrs by NCCLS-based two-fold broth dilution method; format: functional; conditions: read-out: MIC
# [6] = tested on: Enterococcus faecium; assay: Antibacterial activity against t Enterococcus faecium after 20 hrs by NCCLS-based two-fold broth dilution method; format: functional
# [7] = tested on: Enterococcus faecium; assay: Antibacterial activity against t Enterococcus faecium VRE after 20 hrs by NCCLS-based two-fold broth dilution method; format: functional; conditions: read-out: MIC
# [8] = tested on: Pseudomonas aeruginosa; assay: Antibacterial activity against Pseudomonas aeruginosa after 20 hrs by NCCLS-based two-fold broth dilution method; format: functional
# [9] = tested on: Enterococcus faecium; assay: Antibacterial activity against Enterococcus faecium ATCC 19434; format: functional
# [10] = tested on: Haemophilus influenzae; assay: Antibacterial activity against Haemophilus influenzae ATCC 10211; format: functional
# [11] = tested on: Enterococcus faecalis; assay: Antibacterial activity against Enterococcus faecalis ATCC 29212; format: functional
# [12] = tested on: Enterococcus faecalis; assay: Antibacterial activity against Enterococcus faecalis SR7914 (VRE); format: functional
# [13] = tested on: Staphylococcus aureus; assay: Antibacterial activity against methicillin susceptible Staphylococcus aureus ATCC 29213; format: functional
# [14] = tested on: Staphylococcus aureus; assay: Antibacterial activity against methicillin resistant Staphylococcus aureus SR3637; format: functional
# [15] = tested on: Enterococcus faecium; assay: Antibacterial activity against Enterococcus faecium SR7917 (VRE); format: functional
# [16] = tested on: Pseudomonas aeruginosa; assay: Antibacterial activity against Pseudomonas aeruginosa YY165; format: functional
# [17] = tested on: Mycolicibacterium smegmatis; assay: Antibacterial activity against Mycobacterium smegmatis; format: functional
# [18] = tested on: Mycolicibacterium fortuitum; assay: Antibacterial activity against Mycobacterium fortuitum; format: functional
# [19] = tested on: Mycobacterium tuberculosis; assay: Antibacterial activity against Mycobacterium tuberculosis; format: functional
# [20] = tested on: Mycobacterium avium; assay: Antibacterial activity against Mycobacterium avium; format: functional
# [21] = tested on: Mycobacterium intracellulare; assay: Antibacterial activity against Mycobacterium intracellulare; format: functional
# [22] = tested on: Staphylococcus aureus; assay: Antibacterial activity against Staphylococcus aureus; format: functional
# [23] = tested on: Bacillus subtilis; assay: Antibacterial activity against Bacillus subtilis; format: functional
# [24] = tested on: Escherichia coli; assay: Antibacterial activity against Escherichia coli; format: functional
# [25] = tested on: Escherichia coli; assay: Antibacterial activity against Escherichia coli after 20 hrs by NCCLS-based two-fold broth dilution method; format: functional
# [26] = tested on: Streptococcus pneumoniae; assay: Antibacterial activity against Streptococcus pneumoniae; format: functional
# [27] = tested on: Escherichia coli; assay: Antibacterial activity against Escherichia coli ATCC 25922; format: functional
# [28] = tested on: Acinetobacter baumannii; assay: Antibacterial activity against Acinetobacter baumannii ATCC 19606; format: functional; conditions: ATCC 19606 = CIP 70.34 = JCM 6841
# [29] = tested on: Pseudomonas aeruginosa; assay: Antibacterial activity against Pseudomonas aeruginosa PAO1 deltamexB; format: functional
# [30] = target: T1, Phospho-N-acetylmuramoyl-pentapeptide-transferase (Staphylococcus aureus, UniProt P0C1R8); assay: Inhibition of MraY in Staphylococcus aureus
# T1 sequence (P0C1R8 whole entry): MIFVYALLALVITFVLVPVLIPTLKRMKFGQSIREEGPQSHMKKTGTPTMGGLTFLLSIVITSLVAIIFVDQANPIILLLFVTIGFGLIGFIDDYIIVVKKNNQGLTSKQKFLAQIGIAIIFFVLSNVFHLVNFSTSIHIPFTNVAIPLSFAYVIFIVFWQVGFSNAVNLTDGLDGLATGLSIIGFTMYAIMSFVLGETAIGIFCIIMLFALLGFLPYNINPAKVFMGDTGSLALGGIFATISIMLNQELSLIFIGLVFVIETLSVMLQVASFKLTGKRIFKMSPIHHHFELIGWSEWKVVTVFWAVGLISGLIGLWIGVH
# [31] = target: Phospho-N-acetylmuramoyl-pentapeptide-transferase (Escherichia coli, UniProt E2QF15); assay: Inhibition of MraY in Escherichia coli
# [32] = target: T2, Phospho-N-acetylmuramoyl-pentapeptide-transferase (Aquifex aeolicus (strain VF5), UniProt O66465); assay: Inhibition of MraY in Aquifex aeolicus
# T2 sequence (O66465 whole entry): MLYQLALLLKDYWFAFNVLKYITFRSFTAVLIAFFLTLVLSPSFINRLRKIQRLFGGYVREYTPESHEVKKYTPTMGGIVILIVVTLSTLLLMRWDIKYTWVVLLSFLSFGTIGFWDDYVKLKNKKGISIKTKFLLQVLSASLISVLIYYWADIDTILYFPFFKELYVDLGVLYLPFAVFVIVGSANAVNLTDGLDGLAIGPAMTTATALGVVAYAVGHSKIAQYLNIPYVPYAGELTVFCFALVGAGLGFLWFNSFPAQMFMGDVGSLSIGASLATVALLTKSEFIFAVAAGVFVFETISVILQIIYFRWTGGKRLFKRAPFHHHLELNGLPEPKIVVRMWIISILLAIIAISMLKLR
# [33] = tested on: Staphylococcus aureus; assay: Antibacterial activity against methicillin resistant Staphylococcus aureus; format: functional, organism-based
# [34] = tested on: Mycolicibacterium vaccae; assay: Antibacterial activity against Mycobacterium vaccae; format: functional
# Sequence of Phospho-N-acetylmuramoyl-pentapeptide-transferase (Escherichia coli, UniProt E2QF15) (E2QF15 whole entry): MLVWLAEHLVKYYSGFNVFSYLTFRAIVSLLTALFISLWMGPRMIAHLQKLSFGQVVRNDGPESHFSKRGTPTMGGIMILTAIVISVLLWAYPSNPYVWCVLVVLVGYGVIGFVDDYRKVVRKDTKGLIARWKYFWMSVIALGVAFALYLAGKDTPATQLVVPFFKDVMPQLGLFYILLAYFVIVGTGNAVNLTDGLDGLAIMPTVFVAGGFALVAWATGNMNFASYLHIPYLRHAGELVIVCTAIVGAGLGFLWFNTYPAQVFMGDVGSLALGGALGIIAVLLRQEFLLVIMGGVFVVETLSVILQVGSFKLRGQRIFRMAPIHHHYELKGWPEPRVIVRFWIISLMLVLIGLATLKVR
SMILES,MIC [1] [µg/mL],MIC [2] [µg/mL],MIC [3] [µg/mL],MIC [4] [µg/mL],MIC [5] [µg/mL],MIC [6] [µg/mL],MIC [7] [µg/mL],MIC [8] [µg/mL],MIC [9] [µg/mL],MIC [10] [µg/mL],MIC [11] [µg/mL],MIC [12] [µg/mL],MIC [13] [µg/mL],MIC [14] [µg/mL],MIC [15] [µg/mL],MIC [16] [µg/mL],further results
CCCCCCCCCCCCCC(=O)N[C@@H]1CCN[C@@H]([C@H](O[C@@H]2O[C@H](CN)[C@@H](O)[C@H]2O)[C@H]2O[C@@H](n3ccc(=O)[nH]c3=O)[C@H](O)[C@@H]2O)C1,32,2,2,32,16,16,8,32,16,32,2,2,16,32,8,32,
CO[C@@H]1[C@@H](OC)[C@H](C)O[C@@H](OC(=O)C[C@@H](C)CC(=O)O[C@@H](CCCCCCCCCCC(C)C)CC(=O)O[C@H]2CN(C)[C@@H]([C@H](O[C@@H]3O[C@H](CN)[C@@H](O)[C@H]3O)[C@H]3O[C@@H](n4ccc(=O)[nH]c4=O)[C@H](O)[C@@H]3O)C(=O)N(C)[C@@H]2C(=O)O)[C@@H]1OC,,,,,,,,,,,,,,,,,MIC [17]: 1.56 to 3.13 µg/mL; MIC [18]: 50 µg/mL; MIC [19]: 3.13 to 12.5 µg/mL; MIC [20]: 6.25 to 50 µg/mL; MIC [21]: 1.56 to 25 µg/mL; MIC [22]: 1.56 to 6.25 µg/mL; MIC [23]: 6.25 to 12.5 µg/mL; MIC [24]: 100 µg/mL
CCCCCCCCCCCCCCCC(=O)N[C@H]1CCN[C@H]([C@H](O[C@@H]2O[C@H](CN)[C@@H](O)[C@H]2O)[C@H]2O[C@@H](n3ccc(=O)[nH]c3=O)[C@H](O)[C@@H]2O)C1,32,8,8,8,8,8,4,32,8,32,8,8,8,8,4,32,MIC [25]: 16 µg/mL; MIC [26]: > 64 µg/mL; MIC [27]: 16 µg/mL; MIC [28]: > 64 µg/mL; MIC [29]: > 64 µg/mL
CCCCCCCCCCCCCCCC(=O)N[C@@H]1CCN[C@@H]([C@H](O[C@@H]2O[C@H](CN)[C@@H](O)[C@H]2O)[C@H]2O[C@@H](n3ccc(=O)[nH]c3=O)[C@H](O)[C@@H]2O)C1,32,4,2,16,8,2,8,32,8,32,4,2,8,16,4,32,MIC [25]: 4 µg/mL; pIC50 [30]: 4.62; MIC [26]: 64 µg/mL; MIC [27]: > 64 µg/mL; MIC [28]: > 64 µg/mL; MIC [29]: > 64 µg/mL
NC[C@H]1O[C@@H](O[C@@H](CO)[C@H]2O[C@@H](n3ccc(=O)[nH]c3=O)[C@H](O)[C@@H]2O)[C@H](O)[C@@H]1O,,,,,,,,,,,,,,,,,pIC50 [31]: 5.30
NC[C@H]1O[C@@H](O[C@H]([C@H]2O[C@@H](n3ccc(=O)[nH]c3=O)[C@H](O)[C@@H]2O)n2cc(CCCCCCCCCCOc3ccc(C(=O)c4ccccc4)cc3)nn2)[C@H](O)[C@@H]1O,,,,,,,,,,,,,,,,,pIC50 [32]: 4.60; MIC [33]: 8 µg/mL
CCCCCCCCCCCCC[C@@H](CC(=O)O[C@H]1CN(C)[C@@H]([C@H](O[C@@H]2O[C@H](CN)[C@@H](O)[C@H]2O)[C@H]2O[C@@H](n3ccc(=O)[nH]c3=O)[C@H](O)[C@@H]2O)C(=O)N(C)[C@@H]1C(=O)O)OC(=O)C[C@H](C)CC(=O)O[C@@H]1O[C@@H](C)[C@H](OC)[C@@H](OC)[C@H]1OC,,,,,,,,,,,,,,,,,MIC [17]: 0.78 to 1.56 µg/mL; MIC [34]: 0.2 µg/mL; MIC [19]: 1.56 µg/mL; MIC [20]: < 0.025 µg/mL; MIC [21]: 0.78 µg/mL

# From ChEMBL document CHEMBL4402510, “Caprazamycins: Promising lead structures acting on a novel antibacterial target MraY” (Eur J Med Chem, 2019)
